Assay results published in patent US20150105252A1, “SUBSTITUTED PYRAZOLES AS HERBICIDES” (E I DU PONT DE NEMOURS AND COMPANY, priority 2013, published 2015).

Assays:
barnyardgrass [1] = experiment: Test A preemergence; format: in vivo, Echinochloa crus-galli; conditions: 0 to 100 scale
From the text: (§1) Seeds of plant species selected from barnyardgrass (Echinochloa crus-galli), kochia (Kochia scoparia), common ragweed (Ambrosia elation), Italian ryegrass (Lolium multiflorum), crabgrass, large (large crabgrass, Digitaria sanguinalis), foxtail, giant (giant foxtail, Setaria faberii), morningglory (Ipomoea spp.), pigweed (redroot pigweed, Amaranthus retroflexus), velvetleaf (Abutilon theophrasti), wheat (Triticum aestivum), and corn (Zea mays) were planted into a blend of loam soil and sand and treated preemergence with a directed soil spray using test chemicals formulated in a non-phytotoxic solvent mixture which included a surfactant.
(§2) At the same time, plants selected from these crop and weed species and also blackgrass (Alopecurus myosuroides), and galium (catchweed bedstraw, Galium aparine) were planted in pots containing the same blend of loam soil and sand and treated with postemergence applications of test chemicals formulated in the same manner. Plants ranged in height from 2 to 10 cm and were in the one- to two-leaf stage for the postemergence treatment. Treated plants and untreated controls were maintained in a greenhouse for approximately 10 days, after which time all treated plants were compared to untreated controls and visually evaluated for injury. Plant response ratings, summarized in Table A, are based on a 0 to 100 scale where 0 is no effect and 100 is complete control. A dash (-) response means no test result.

crabgrass, large [2] = experiment: Test A preemergence; format: in vivo, Digitaria sanguinalis; conditions: 0 to 100 scale
From the text: as §1, §2

morningglory [3] = experiment: Test A preemergence; format: in vivo, Ipomoea spp.; conditions: 0 to 100 scale
From the text: as §1, §2

velvetleaf [4] = experiment: Test A preemergence; format: in vivo, Abutilon theophrasti; conditions: 0 to 100 scale
From the text: as §1, §2

barnyardgrass [5] = experiment: Test A postemergence; format: in vivo, Echinochloa crus-galli; conditions: Postemergence
From the text: as §1, §2

crabgrass, large [6] = experiment: Test A postemergence; format: in vivo, Digitaria sanguinalis
From the text: as §1, §2

morningglory [7] = experiment: Test A postemergence; format: in vivo, Ipomoea spp.
From the text: as §1, §2

velvetleaf [8] = experiment: Test A postemergence; format: in vivo, Abutilon theophrasti
From the text: as §1, §2

foxtail, giant [9] = experiment: Test A preemergence; format: in vivo, Setaria faberii; conditions: 0 to 100 scale
From the text: as §1, §2

pigweed [10] = experiment: Test A preemergence; format: in vivo, Amaranthus retroflexus; conditions: 0 to 100 scale
From the text: as §1, §2

wheat [11] = experiment: Test A preemergence; format: in vivo, Triticum aestivum; conditions: preemergence, 125 g ai/ha; visual injury, 0 to 100 scale, approx. 10 days
From the text: as §1, §2

corn [12] = experiment: Test A preemergence; format: in vivo, Zea mays; conditions: 0 to 100 scale
From the text: as §1, §2

foxtail, giant [13] = experiment: Test A postemergence; format: in vivo, Setaria faberii
From the text: as §1, §2

pigweed [14] = experiment: Test A postemergence; format: in vivo, Amaranthus retroflexus
From the text: as §1, §2

wheat [15] = experiment: Test A postemergence; format: in vivo, Triticum aestivum
From the text: as §1, §2

corn [16] = experiment: Test A postemergence; format: in vivo, Zea mays
From the text: as §1, §2

[17] = Preemergence, 2000 g ai/ha, 0 no effect, 100 complete control
[18] = 1000 g ai/ha, visual rating after approx. 10 days, 0 to 100 scale (0 no effect, 100 complete control)
[19] = Postemergence, 1000 g ai/ha, visual rating after approx. 10 days, 0 to 100 scale (0 no effect, 100 complete control)
[20] = Preemergence, 500 g ai/ha, 0 no effect, 100 complete control
[21] = preemergence, 125 g ai/ha, visual injury, approx. 10 days
[22] = 125 g ai/ha, 0 to 100 scale, 0 no effect, 100 complete control
[23] = 500 g ai/ha, visual rating after approx. 10 days, 0 to 100 scale (0 no effect, 100 complete control)
[24] = Postemergence, 500 g ai/ha, visual rating after approx. 10 days, 0 to 100 scale (0 no effect, 100 complete control)
[25] = postemergence, 125 g ai/ha, about 10 days, visual rating on 0 to 100 scale (0 no effect, 100 complete control)

| Compound | Barnyardgrass plant response rating (barnyardgrass [1]; [17]) | Crabgrass, Large plant response rating (crabgrass, large [2]; [17]) | Morningglory plant response rating (morningglory [3]; [17]) | Velvetleaf plant response rating (velvetleaf [4]; [17]) | Barnyardgrass plant response rating (barnyardgrass [5]; [18]) | Crabgrass, Large plant response rating (crabgrass, large [6]; [19]) | Morningglory plant response rating (morningglory [7]; [19]) | Velvetleaf plant response rating (velvetleaf [8]; [19]) | Barnyardgrass plant response rating (barnyardgrass [1]; [20]) | Barnyardgrass plant response rating (barnyardgrass [1]; [21]) | Crabgrass, Large plant response rating (crabgrass, large [2]; [20]) | Foxtail, Giant plant response rating (foxtail, giant [9]; [20]) | Foxtail, Giant plant response rating (foxtail, giant [9]; [21]) | Morningglory plant response rating (morningglory [3]; [20]) | Morningglory plant response rating (morningglory [3]; [21]) | Pigweed plant response rating (pigweed [10]; [20]) | Pigweed plant response rating (pigweed [10]; [21]) | Velvetleaf plant response rating (velvetleaf [4]; [20]) | Velvetleaf plant response rating (velvetleaf [4]; [21]) | Wheat plant response rating (wheat [11]) | further results |
| --- | --- | --- | --- | --- | --- | --- | --- | --- | --- | --- | --- | --- | --- | --- | --- | --- | --- | --- | --- | --- | --- |
| Cc1cc(C(=O)NC(C)(C)C)nn1Cc1cccc(C(F)(F)F)c1 [Compound 1] | 10 | 10 | 0 | 0 | 30 | 30 | 20 | 30 |  |  |  |  |  |  |  |  |  |  |  |  |  |
| Cc1cc(C(=O)NC2CC2)nn1Cc1cccc(C(F)(F)F)c1 [Compound 2] | 90 | 100 | 100 | 100 | 50 | 50 | 80 | 70 |  |  |  |  |  |  |  |  |  |  |  |  |  |
| Cc1cc(C(=O)NCC(F)(F)C(F)(F)F)nn1Cc1cccc(OC(F)(F)F)c1 [Compound 6] |  |  |  |  |  |  |  |  | 0 | 0 | 20 | 20 | 0 | 0 | 0 | 50 | 30 | 0 | 0 | 0 | Crabgrass, Large plant response rating (crabgrass, large [2]; [21]): 0; Corn plant response rating (corn [12]; [20]): 0; Corn plant response rating (corn [12]; [21]): 0; Barnyardgrass plant response rating (barnyardgrass [5]; [22]): 0; Barnyardgrass plant response rating (barnyardgrass [5]; [23]): 10; Crabgrass, Large plant response rating (crabgrass, large [6]; [24]): 30; Crabgrass, Large plant response rating (crabgrass, large [6]; [25]): 10; Foxtail, Giant plant response rating (foxtail, giant [13]; [24]): 20; Foxtail, Giant plant response rating (foxtail, giant [13]; [25]): 10; Morningglory plant response rating (morningglory [7]; [24]): 60; Morningglory plant response rating (morningglory [7]; [25]): 30; Pigweed plant response rating (pigweed [14]; [24]): 60; Pigweed plant response rating (pigweed [14]; [25]): 50; Velvetleaf plant response rating (velvetleaf [8]; [24]): 40; Velvetleaf plant response rating (velvetleaf [8]; [25]): 10; Wheat plant response rating (wheat [15]; [24]): 0; Wheat plant response rating (wheat [15]; [25]): 0; Corn plant response rating (corn [16]; [24]): 0; Corn plant response rating (corn [16]; [25]): 0 |
| Cc1cc(C(=O)NCC(F)(F)F)nn1Cc1cccc(C(F)(F)F)c1 [Compound 7] |  |  |  |  |  |  |  |  | 40 | 0 | 90 | 70 | 10 | 40 | 0 | 90 | 0 | 10 | 0 | 0 | Corn plant response rating (corn [12]; [20]): 10; Corn plant response rating (corn [12]; [21]): 0; Barnyardgrass plant response rating (barnyardgrass [5]; [22]): 0; Barnyardgrass plant response rating (barnyardgrass [5]; [23]): 30; Crabgrass, Large plant response rating (crabgrass, large [6]; [24]): 40; Crabgrass, Large plant response rating (crabgrass, large [6]; [25]): 10; Foxtail, Giant plant response rating (foxtail, giant [13]; [24]): 30; Foxtail, Giant plant response rating (foxtail, giant [13]; [25]): 0; Morningglory plant response rating (morningglory [7]; [24]): 100; Morningglory plant response rating (morningglory [7]; [25]): 40; Pigweed plant response rating (pigweed [14]; [24]): 50; Pigweed plant response rating (pigweed [14]; [25]): 30; Velvetleaf plant response rating (velvetleaf [8]; [24]): 40; Velvetleaf plant response rating (velvetleaf [8]; [25]): 30; Wheat plant response rating (wheat [15]; [24]): 20; Wheat plant response rating (wheat [15]; [25]): 0; Corn plant response rating (corn [16]; [24]): 30; Corn plant response rating (corn [16]; [25]): 10 |
